The source made the active and inactive calls.
Legend:
[1] = biological target: Tyrosyl-DNA phosphodiesterase 2 (Homo sapiens, UniProt O95551); assay: potency against TDP2 phosphodiesterase activity – biochemical, epi absorbance, IC50, dose response (AID 743297)
Beta-lactamase [2] = biological target: Beta-lactamase (Pseudomonas aeruginosa, UniProt Q79MP6);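 also: biochemical dose-response test of metallo-beta-lactamase enzyme inhibition, read out by epi-absorbance; purified recombinant IMP-1 metallo-beta-lactamase with nitrocefin as substrate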
HEK293 [3] = assay: optical interference in Abeta FP readout, dose response, artefact control for IDE activator project, biochemical, fluorescence polarization (AID 588442); type: functional, cell-based; conditions: Homo sapiens
HEK293 [4] = assay: membrane integrity loss in HEK cells – cell-based, fluorescence, cytotoxicity control for IDE activator project, dose response (AID 588440); type: functional; conditions: Homo sapiens;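 also: cytotoxicity by LDH release measuring loss of membrane integrity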
Insulin-degrading enzyme [5] = biological target: T1, Insulin-degrading enzyme (Homo sapiens, UniProt P14735); assay: cellular IDE activation of Abeta substrate cleavage – fluorescence polarization, HEK cells, dose response (AID 588439); type: functional, cell-based
T1 sequence (P14735 whole entry): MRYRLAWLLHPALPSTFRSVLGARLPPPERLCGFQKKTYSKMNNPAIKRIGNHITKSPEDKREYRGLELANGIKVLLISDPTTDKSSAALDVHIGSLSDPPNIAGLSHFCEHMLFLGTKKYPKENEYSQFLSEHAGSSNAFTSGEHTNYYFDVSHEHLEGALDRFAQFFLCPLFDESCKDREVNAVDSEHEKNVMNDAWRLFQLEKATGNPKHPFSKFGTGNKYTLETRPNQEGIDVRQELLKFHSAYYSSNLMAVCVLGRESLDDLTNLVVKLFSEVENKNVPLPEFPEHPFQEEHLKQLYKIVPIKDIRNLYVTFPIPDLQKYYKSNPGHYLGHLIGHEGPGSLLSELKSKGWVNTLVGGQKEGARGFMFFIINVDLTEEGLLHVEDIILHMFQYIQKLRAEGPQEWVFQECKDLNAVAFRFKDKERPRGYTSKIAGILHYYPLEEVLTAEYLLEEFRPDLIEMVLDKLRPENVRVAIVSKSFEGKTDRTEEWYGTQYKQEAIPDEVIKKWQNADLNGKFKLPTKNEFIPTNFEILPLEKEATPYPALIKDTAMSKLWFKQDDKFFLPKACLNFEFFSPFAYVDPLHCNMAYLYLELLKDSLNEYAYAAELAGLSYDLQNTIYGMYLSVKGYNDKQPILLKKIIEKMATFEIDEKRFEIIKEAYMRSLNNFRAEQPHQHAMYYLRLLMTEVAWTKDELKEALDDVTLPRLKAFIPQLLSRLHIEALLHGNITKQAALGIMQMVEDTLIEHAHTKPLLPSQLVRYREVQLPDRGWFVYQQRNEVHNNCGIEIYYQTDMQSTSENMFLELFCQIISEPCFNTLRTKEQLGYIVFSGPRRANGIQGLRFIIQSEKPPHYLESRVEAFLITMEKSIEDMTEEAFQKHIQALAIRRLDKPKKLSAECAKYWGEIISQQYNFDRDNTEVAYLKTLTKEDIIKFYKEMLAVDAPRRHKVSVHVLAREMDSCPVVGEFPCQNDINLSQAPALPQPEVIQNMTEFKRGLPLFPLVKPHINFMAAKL

ORF 73 = biological target: T2, ORF 73 (Human herpesvirus 8, UniProt O40947); assay: KSHV LANA DNA-binding disruption – biochemical, fluorescence polarization, cherry-picked samples, dose response (AID 504725); design: species or system Human gammaherpesvirus 8;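 also: fluorescence polarization of a labeled DNA duplex reporting LANA DNA binding; potency is for inhibitors that block LANA binding to the DNA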
T2 sequence (O40947 whole entry): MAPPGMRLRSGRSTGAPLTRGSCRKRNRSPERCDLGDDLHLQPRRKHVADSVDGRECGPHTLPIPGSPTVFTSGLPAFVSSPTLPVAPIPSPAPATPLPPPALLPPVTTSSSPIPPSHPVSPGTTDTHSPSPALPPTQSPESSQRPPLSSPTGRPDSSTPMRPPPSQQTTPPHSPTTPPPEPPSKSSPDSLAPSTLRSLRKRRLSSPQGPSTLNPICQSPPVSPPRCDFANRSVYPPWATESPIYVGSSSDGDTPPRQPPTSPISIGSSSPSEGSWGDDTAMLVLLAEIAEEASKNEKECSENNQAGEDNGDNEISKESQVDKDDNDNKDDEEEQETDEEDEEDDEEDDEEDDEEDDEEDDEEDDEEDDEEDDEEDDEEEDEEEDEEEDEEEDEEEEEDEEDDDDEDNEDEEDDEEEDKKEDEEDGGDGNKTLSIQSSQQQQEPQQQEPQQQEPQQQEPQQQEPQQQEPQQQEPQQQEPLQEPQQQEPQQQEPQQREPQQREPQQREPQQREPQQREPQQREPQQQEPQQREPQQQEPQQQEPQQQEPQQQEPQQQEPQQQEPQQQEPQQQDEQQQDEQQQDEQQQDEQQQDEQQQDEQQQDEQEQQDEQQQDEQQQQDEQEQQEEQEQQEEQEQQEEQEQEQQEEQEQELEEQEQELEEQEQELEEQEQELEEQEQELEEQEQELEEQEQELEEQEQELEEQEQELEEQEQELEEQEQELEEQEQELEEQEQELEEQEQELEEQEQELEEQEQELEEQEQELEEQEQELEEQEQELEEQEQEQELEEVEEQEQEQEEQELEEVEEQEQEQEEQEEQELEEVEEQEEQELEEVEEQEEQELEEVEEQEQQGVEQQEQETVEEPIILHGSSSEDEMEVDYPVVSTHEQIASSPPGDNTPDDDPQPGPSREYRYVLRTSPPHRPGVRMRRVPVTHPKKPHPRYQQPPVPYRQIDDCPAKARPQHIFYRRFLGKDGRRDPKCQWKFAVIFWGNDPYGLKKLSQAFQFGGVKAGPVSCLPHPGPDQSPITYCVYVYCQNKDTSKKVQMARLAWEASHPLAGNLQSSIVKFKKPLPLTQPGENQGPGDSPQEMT

Beta-lactamase [6] = biological target: Beta-lactamase (Salmonella choleraesuis (strain SC-B67), UniProt Q5J463)
Insulin-degrading enzyme [7] = biological target: T1, Insulin-degrading enzyme; assay: recombinant IDE activation, cell-free – biochemical, fluorescence polarization, counter-screen for IDE activator project, dose response (AID 588681)
[8] = viability loss in HepG2 hepatoma cells – cell-based, cherry-picks, set 5, cytotoxicity control, dose response (AID 1053118); type: functional
cells = type: functional, cell-based
[9] = biological target: SWI/SNF-related matrix-associated actin-dependent regulator of chromatin subfamily A member 2 (Homo sapiens, UniProt P51531); assay: Luminescence-based cell-based high throughput dose response assay to identify activators of the function of SWI/SNF related, matrix associated, actin dependent regulator of chromatin, subfamily a, member 2 (SMARCA2, BRM).; type: functional
[10] = biological target: T3, Nuclear receptor subfamily 0 group B member 1 (Homo sapiens, UniProt P51843); type: functional, cell-based;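 also: HEK293T cells transfected with SF-1 and DAX-1 plus StAR promoter luciferase reporter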
T3 sequence (P51843 whole entry): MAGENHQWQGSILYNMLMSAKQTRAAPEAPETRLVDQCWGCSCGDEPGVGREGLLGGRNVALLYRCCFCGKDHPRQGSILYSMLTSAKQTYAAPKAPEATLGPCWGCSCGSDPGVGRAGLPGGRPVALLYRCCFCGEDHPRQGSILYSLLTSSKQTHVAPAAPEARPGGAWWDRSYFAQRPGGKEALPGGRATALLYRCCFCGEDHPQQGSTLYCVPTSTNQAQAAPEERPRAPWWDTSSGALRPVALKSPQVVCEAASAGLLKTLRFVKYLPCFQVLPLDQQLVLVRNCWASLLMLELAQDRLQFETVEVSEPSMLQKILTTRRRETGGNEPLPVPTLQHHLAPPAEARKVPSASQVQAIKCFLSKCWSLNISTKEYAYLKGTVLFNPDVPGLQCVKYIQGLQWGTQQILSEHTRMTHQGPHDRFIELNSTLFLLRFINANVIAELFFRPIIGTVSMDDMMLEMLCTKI

[11] = Counterscreen for activators of the function of SWI/SNF related, matrix associated, actin dependent regulator of chromatin, subfamily a, member 2 (SMARCA2, BRM): Luminescence-based cell-based high throughput dose response assay to identify non-selective compounds using the VP16 reporter assay.; type: functional
P388/ADR = assay: cells; type: functional; conditions: Mus musculus
P388 = assay: cells; type: functional; conditions: Mus musculus
SN12K1 = assay: cells; type: functional; conditions: Homo sapiens
[12] = IGROV1 cell killing – plate reader, dry powder samples, PAX8 inhibitor project, dose response (AID 743043); type: functional, cell-based; conditions: IGROV-1
Paired box protein Pax-8 = Paired box protein Pax-8 (Homo sapiens, UniProt Q06710); assay: PAX8 transcriptional activity inhibition in RMG-I – RMG-I cells, luciferase, cherry-pick, dose response (AID 687027); type: functional, cell-based;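 also: luciferase reporter driven by Pax8 target thyroperoxidase promoter measured by SteadyGlo luminescence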
[13] = viability loss in LCL cells – cell-based, plate reader, dry powder, set 2, cytotoxicity control, dose response (AID 624367); type: functional
[14] = OVCAR-3 cell viability loss – plate reader, dry powder samples, PAX8 inhibitor project, dose response (AID 743044); type: functional, cell-based
[15] = OVCAR8 cell viability loss – plate reader, dry powder samples, PAX8 project, dose response (AID 743197); type: functional, cell-based; conditions: OVCAR-8
Caspase-3 = biological target: T4, Caspase-3 (Homo sapiens, UniProt P42574); assay: Dose-response confirmation of uHTS inhibitor hits of Sentrin-Specific Protease 8 in a Caspase-3 Fluorescence assay.; type: functional
T4 sequence (P42574 whole entry): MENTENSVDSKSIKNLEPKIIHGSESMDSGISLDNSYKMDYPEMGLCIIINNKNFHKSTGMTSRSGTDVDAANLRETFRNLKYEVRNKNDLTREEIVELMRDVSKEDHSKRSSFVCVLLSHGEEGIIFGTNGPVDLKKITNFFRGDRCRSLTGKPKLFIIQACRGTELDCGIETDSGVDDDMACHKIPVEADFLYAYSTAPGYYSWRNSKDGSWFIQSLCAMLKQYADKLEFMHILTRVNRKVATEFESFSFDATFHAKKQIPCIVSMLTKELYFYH

[16] = biological target: T5, Sentrin-specific protease 8 (Homo sapiens, UniProt Q96LD8); type: functional
T5 sequence (Q96LD8 whole entry): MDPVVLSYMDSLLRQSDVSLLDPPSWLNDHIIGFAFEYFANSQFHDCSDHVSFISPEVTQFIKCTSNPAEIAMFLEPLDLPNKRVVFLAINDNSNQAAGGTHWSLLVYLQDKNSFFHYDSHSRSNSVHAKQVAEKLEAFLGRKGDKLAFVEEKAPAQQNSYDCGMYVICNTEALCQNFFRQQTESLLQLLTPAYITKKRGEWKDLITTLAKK

[17] = biological target: T5, Sentrin-specific protease 8; type: functional; remark: listed apart in the source
Caspase-6 = biological target: T6, Caspase-6 (Homo sapiens, UniProt P55212); assay: inhibition of CASP6 peptide cleavage – biochemical, VEID-R110 fluorescence, cherry-pick, dose response (AID 720632)
T6 sequence (P55212 whole entry): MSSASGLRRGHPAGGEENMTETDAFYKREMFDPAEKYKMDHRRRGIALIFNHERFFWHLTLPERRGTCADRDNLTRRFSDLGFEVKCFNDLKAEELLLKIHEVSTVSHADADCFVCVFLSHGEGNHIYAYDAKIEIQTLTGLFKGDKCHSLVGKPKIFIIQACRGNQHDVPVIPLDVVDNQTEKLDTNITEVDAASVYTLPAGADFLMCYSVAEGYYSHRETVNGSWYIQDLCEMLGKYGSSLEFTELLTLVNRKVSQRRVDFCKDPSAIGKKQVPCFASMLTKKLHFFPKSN

Paired box protein Pax-8, sequence (Q06710 whole entry): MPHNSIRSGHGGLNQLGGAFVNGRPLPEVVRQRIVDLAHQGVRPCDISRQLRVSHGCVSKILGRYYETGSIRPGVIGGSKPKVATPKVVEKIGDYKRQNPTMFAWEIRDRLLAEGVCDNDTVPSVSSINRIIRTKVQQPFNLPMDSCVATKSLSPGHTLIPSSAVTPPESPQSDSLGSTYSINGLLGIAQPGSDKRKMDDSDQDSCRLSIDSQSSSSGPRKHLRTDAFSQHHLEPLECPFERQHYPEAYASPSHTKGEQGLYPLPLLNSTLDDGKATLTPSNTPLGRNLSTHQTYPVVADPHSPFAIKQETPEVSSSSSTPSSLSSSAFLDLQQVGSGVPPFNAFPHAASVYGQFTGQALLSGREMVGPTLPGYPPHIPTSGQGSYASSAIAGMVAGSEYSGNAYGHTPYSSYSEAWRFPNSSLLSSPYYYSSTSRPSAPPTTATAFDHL
Tyrosyl-DNA phosphodiesterase 2, sequence (O95551 whole entry): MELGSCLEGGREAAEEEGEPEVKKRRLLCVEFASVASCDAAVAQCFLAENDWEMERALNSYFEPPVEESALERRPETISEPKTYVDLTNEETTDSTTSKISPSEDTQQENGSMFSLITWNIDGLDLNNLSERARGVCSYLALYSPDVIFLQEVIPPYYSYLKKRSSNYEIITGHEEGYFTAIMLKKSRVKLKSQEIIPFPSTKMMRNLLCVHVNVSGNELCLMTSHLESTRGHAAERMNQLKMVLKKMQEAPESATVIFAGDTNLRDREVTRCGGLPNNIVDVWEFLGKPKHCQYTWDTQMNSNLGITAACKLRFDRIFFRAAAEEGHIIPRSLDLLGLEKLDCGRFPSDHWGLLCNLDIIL
SWI/SNF-related matrix-associated actin-dependent regulator of chromatin subfamily A member 2, sequence (P51531 whole entry): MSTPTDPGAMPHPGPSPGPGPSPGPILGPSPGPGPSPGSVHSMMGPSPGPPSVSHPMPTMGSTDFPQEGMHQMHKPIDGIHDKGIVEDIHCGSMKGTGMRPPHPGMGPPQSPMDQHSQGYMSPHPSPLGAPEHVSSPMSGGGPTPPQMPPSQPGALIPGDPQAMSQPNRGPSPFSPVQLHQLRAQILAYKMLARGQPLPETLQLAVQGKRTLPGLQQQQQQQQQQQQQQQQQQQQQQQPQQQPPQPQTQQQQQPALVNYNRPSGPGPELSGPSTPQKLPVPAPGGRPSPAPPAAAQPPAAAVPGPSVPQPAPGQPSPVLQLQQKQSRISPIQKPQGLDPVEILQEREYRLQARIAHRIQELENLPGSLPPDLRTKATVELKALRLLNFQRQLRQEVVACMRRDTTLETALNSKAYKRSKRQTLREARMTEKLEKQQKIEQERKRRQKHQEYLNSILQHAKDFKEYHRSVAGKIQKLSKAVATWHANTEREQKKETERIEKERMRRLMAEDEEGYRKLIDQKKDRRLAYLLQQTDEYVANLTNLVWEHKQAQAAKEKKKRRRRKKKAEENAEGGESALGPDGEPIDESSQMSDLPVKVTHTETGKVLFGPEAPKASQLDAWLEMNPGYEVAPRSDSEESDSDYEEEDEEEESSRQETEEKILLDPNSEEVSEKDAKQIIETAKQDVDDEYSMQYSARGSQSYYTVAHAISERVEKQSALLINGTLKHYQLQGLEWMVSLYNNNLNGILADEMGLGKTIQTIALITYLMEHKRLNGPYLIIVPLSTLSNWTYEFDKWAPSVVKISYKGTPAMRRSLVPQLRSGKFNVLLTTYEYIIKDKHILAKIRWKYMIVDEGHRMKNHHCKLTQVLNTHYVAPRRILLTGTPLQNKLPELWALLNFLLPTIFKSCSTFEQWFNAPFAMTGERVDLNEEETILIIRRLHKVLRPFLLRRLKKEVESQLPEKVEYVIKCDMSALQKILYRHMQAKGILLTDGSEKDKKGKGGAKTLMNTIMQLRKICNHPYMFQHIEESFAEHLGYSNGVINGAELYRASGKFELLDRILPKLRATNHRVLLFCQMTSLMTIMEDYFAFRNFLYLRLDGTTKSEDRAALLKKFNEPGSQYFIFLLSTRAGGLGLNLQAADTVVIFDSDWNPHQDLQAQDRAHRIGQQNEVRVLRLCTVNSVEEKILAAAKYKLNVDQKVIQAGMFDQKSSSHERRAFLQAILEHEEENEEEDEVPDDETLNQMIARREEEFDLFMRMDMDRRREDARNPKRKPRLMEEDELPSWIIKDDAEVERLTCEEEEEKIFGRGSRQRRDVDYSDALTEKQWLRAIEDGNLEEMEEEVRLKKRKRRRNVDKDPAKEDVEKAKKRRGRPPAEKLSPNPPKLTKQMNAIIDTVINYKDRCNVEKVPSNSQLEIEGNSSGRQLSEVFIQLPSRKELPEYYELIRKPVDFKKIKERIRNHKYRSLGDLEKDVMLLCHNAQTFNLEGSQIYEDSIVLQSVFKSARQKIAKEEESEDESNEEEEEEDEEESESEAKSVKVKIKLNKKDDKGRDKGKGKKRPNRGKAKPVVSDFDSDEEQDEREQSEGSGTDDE
Beta-lactamase (Salmonella choleraesuis (strain SC-B67), UniProt Q5J463), sequence (Q5J463 whole entry): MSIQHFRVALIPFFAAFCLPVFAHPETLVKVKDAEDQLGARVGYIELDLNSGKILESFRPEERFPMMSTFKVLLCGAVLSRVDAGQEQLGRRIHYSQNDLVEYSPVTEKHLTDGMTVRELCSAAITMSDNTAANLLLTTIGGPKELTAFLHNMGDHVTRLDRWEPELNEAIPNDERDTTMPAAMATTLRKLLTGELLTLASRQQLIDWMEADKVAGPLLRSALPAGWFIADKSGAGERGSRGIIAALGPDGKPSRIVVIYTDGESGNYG
Beta-lactamase (Pseudomonas aeruginosa, UniProt Q79MP6), sequence (Q79MP6 whole entry): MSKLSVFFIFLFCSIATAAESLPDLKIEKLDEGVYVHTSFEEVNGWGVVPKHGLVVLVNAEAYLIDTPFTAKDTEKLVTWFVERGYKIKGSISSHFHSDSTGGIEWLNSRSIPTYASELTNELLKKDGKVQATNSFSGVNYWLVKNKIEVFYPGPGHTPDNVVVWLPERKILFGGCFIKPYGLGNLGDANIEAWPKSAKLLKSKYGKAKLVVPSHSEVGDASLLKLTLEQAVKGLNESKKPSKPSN

For COc1ccc(-n2[nH]c(C)cc2=O)cc1, which IC50 [1] is on record?
The IC50 was > 128 µM (inactive).

Which results are given for CC(=O)Oc1ccc2c(c1)Oc1cc(OC(C)=O)ccc1C21OC(=O)c2ccccc21 [FLUORESCEIN DIACETATE]?
IC50 (Beta-lactamase [2]): > 59.6 µM (inactive); EC50 (HEK293 [3]): > 54.7 µM (inactive); IC50 (HEK293 [4]): > 89.2 µM (inactive); EC50 (Insulin-degrading enzyme [5]): > 54.7 µM (inactive); AC50 (ORF 73): 0.042 µM (active); IC50 (Beta-lactamase [6]): > 59.6 µM (inactive); EC50 (Insulin-degrading enzyme [7]): > 54.7 µM (inactive)

For COCC(=O)Nc1ccc2c(c1)C(=O)N(C)[C@@H]1CC[C@H](CC(=O)NCc3ccccc3Cl)O[C@H]1CO2, which AC50 [8] is on record?
Its AC50 is > 52 µM (inactive).

Which results are given for Nc1ccc(S(=O)(=O)Nc2cnc3c(Cl)cccc3n2)cc1 [CHLORSULFAQUINOXALINE]?
IC50 (cells): > 67.5 µM (inactive); EC50 [9]: > 91.2 µM (inactive); IC50 [10]: > 67.5 µM (inactive); EC50 [11]: > 91.2 µM (inactive); GI50 (P388/ADR): 128 µM (inactive); GI50 (P388): 87.1 µM (inactive); GI50 (SN12K1): 117 µM (inactive)

With Cc1noc(C)c1S(=O)(=O)Nc1ccc2c(c1)C(=O)N([C@H](C)CO)C[C@@H](C)[C@@H](CN(C)Cc1ccc(C(F)(F)F)cc1)OCCCC[C@H](C)O2 as the compound, how does the AC50 [12] read?
Its AC50 is 47.1 µM (active).

What about the AC50 (Paired box protein Pax-8) of the same compound?
The AC50 was 8.19 µM (active).

What about the AbsAC35 [13] of the same compound?
Its AbsAC35 is 47.16 µM.

And the AC50 [14]?
The AC50 was 28 µM (active).

And the AC50 [15]?
The AC50 was 46.4 µM (active).

For CCOCCOc1cc(NCc2ccccc2)c2ncn(C(C)C)c2c1, which IC50 (Caspase-3) is on record?
Its IC50 is 45.5 µM (active).

What about the IC50 [16] of the same compound?
Its IC50 is 9.3 µM (active).

What about the IC50 [17] of the same compound?
The IC50 was 8.07 µM (active).

And the AC50 (Caspase-6)?
The AC50 was 9.77 µM (active).
